Test results published in patent US11384366B2, “Lentiviral vector capable of directly reflecting type I interferon response, preparation method thereof, and applications thereof” (Fantasia Biopharma (Zhejiang) Co. Ltd., priority 2016, dated 2022).

How the values were obtained:
IRF3-BiLC = test: Effect of CHX on IRF3-BiLC in THP-1 (IRF3-BiLC) cells; assay type: cell-based, human; details: CHX 100 ng/mL for 10 h, with or without polydA:dT stimulation; normalized to untreated groups; FIG. 5
Experimental: (§1) THP-1-Dual and THP-1 (IRF3-BiLC) cells were plated at a concentration of 1000,000 cells per mL in a 24-well plate. 4 groups were arranged for THP-1-Dual and THP-1 cells respectively, resulting in a total of 8 groups. After 12 hours, for THP-1-Dual cells, two groups of cells were transfected with Lipo2000 and stimulated with […] of polydA:dT, and the other two groups were not treated. The same treatment was performed for THP-1 (IRF3-BiLC). 4 hours after transfection, for the 2 groups of THP-1-Dual cells that were transfected and stimulated with polydA:dT, CHX with a final concentration of 100 ng/mL was added into one group. For the 2 groups of THP-1-Dual cells that were not treated, CHX with a final concentration of 100 ng/mL was added into one group. The other two groups were not treated. The same treatment was performed for THP-1 (IRF3-BiLC).
(§2) After 10 h of CHX treatment, for THP-1-Dual cells, 40 μL of supernatant was taken respectively to detect the luciferase activity. For THP-1 (IRF3-BiLC), 80 μL of Renilla luciferase lysate (purchased from Promega, E2820) was used to lyse on ice for 10 min. […] 20 μL of Renilla luciferase substrate (purchased from Promega, E2820) was added into each well, and the luciferase activity was detected by a microplate reader (purchased from Bio-Tek, Synergy H1).
(§3) The detected values of luciferase were normalized with regard to the untreated groups.

ISRE-Luc = test: Effect of CHX on ISRE-Luc in THP-1-Dual cells; assay type: cell-based; details: CHX 100 ng/mL for 10 h, with or without polydA:dT stimulation; normalized to untreated groups; FIG. 6
Experimental: as §1, §2, §3

IRF7 dimers = test: IRF7 dimer luciferase signal in THP-1 (IRF7-BiLC) under different stimulations; assay type: cell-based, human; details: FIG. 2c
IRF5 dimers = test: IRF5 dimer luciferase signal in THP-1 (IRF5-BiLC) under different stimulations; assay type: cell-based, human; details: FIG. 2b
IRF3 dimers = test: IRF3 dimer luciferase signal in THP-1 (IRF3-BiLC) under different stimulations; assay type: cell-based, human; details: FIG. 2a

Compound	effect of CHX on IRF3-BiLC luciferase activity (IRF3-BiLC)	effect of CHX on ISRE-Luc luciferase activity (ISRE-Luc)	signals of the IRF7 dimers (luciferase activity) (IRF7 dimers)	signals of the IRF5 dimers (luciferase activity) (IRF5 dimers)	signals of the IRF3 dimers (luciferase activity) (IRF3 dimers)
C[C@@H]1C[C@@H]([C@H](O)CC2CC(=O)NC(=O)C2)C(=O)[C@@H](C)C1 [CHX]	capable of reflecting the intracellular type I interferon response reaction	affected significantly	–	–	–
IL-1B: stimulus used on the THP-1 BiLC reporter cell lines	–	–	cannot cause the formation of the signals	cannot cause the formation of the signals	cannot cause the formation of the signals
TNFa	–	–	cannot cause the formation of the signals	cannot cause the formation of the signals	cannot cause the formation of the signals
